# Tested on: Micrococcus luteus
# Assay: Antimicrobial activity against Micrococcus luteus at 10 ug after 24 hrs by paper disk method
# Assay type: functional
# Settings: read-out: DIZ
row,SMILES,zone of inhibition at 10 µg/disc
1,CC(C)[C@H](NC(=O)Cc1ccccc1)C(=O)N[C@H](CC(=O)O)C(=O)N[C@@H](C)C(=O)N[C@@H](C(=O)NCC(=O)N[C@H](C)C(=O)N[C@@H](Cc1ccccc1)C(=O)O)[C@@H](O)C(C)C,7.1 mm
2,CC[C@H]1OC(=O)[C@H](C)[C@@H](O[C@H]2C[C@@](C)(OC)[C@@H](O)[C@H](C)O2)[C@H](C)[C@@H](O[C@@H]2O[C@H](C)C[C@H](N(C)C)[C@H]2O)[C@](C)(O)C[C@@H](C)C(=O)[C@H](C)[C@@H](O)[C@]1(C)O [ERYTHROMYCIN],25 mm

# From ChEMBL document CHEMBL2010684, “JBIR-78 and JBIR-95: phenylacetylated peptides isolated from Kibdelosporangium sp. AK-AA56” (2012)
